Data reported in patent publication US6667312B2, “Thioether substituted imidazoquinolines” (3M Innovative Properties Company, priority 2000, dated 2003).

Experiments:
interferon (α) = experiment: Cytokine Induction in Human Cells: interferon; type: cell-based; settings: human PBMC, 18 to 24 hours, tested 30-0.014 μM, interferon (α) by ELISA; read-out: Lowest Effective Concentration (μM) Interferon
Source text: (§1) An in vitro human blood cell system is used to assess cytokine induction. Activity is based on the measurement of interferon and tumor necrosis factor (α) (IFN and TNF, respectively) secreted into culture media as described by Testerman et. al. In “Cytokine Induction by the Immunomodulators Imiquimod and S-27609”, Journal of Leukocyte Biology, 58, 365-372 (September, 1995).
(§2) Whole blood from healthy human donors is collected by venipuncture into EDTA vacutainer tubes. Peripheral blood mononuclear cells (PBMC) are separated from whole blood by density gradient centrifugation using Histopaque®-1077. Blood is diluted 1:1 with Dulbecco's Phosphate Buffered Saline (DPBS) or Hank's Balanced Salts Solution (HBSS). The PBMC layer is collected and washed twice with DPBS or HBSS and resuspended at 4×10^6 cells/mL in RPMI complete. The PBMC suspension is added to 48 well flat bottom sterile tissue culture plates (Costar, Cambridge, Mass. or Becton Dickinson Labware, Lincoln Park, N.J.) containing an equal volume of RPMI complete media containing test compound.
(§3) The compounds are solubilized in dimethyl sulfoxide (DMSO). The DMSO concentration should not exceed a final concentration of 1% for addition to the culture wells. The compounds are generally tested at concentrations ranging from 30-0.014 μM.
(§4) The solution of test compound is added at 60 μM to the first well containing RPMI complete and serial 3 fold dilutions are made in the wells. The PBMC suspension is then added to the wells in an equal volume, bringing the test compound concentrations to the desired range (30-0.014 μM). The final concentration of PBMC suspension is 2×10^6 cells/mL. The plates are covered with sterile plastic lids, mixed gently and then incubated for 18 to 24 hours at 37° C. in a 5% carbon dioxide atmosphere.
(§5) Following incubation the plates are centrifuged for 10 minutes at 1000 rpm (˜200× g) at 4° C. The cell-free culture supernatant is removed with a sterile polypropylene pipet and transferred to sterile polypropylene tubes. Samples are maintained at −30 to −70° C. until analysis. The samples are analyzed for interferon (α) by ELISA and for tumor necrosis factor (α) by ELISA or IGEN Assay
Interferon (α) concentration is determined by ELISA using a Human Multi-Species kit from PBL Biomedical Laboratories, New Brunswick, N.J. Results are expressed in pg/mL.
(§6) The table below lists the lowest concentration found to induce interferon and the lowest concentration found to induce tumor necrosis factor for each compound.

[1] = test system: tumor necrosis factor (α); experiment: Cytokine Induction in Human Cells: tumor necrosis factor; type: cell-based; design: key to Lowest Effective Concentration (μM) Tumor Necrosis Factor: A “*” indicates that no induction was seen at any of the tested concentrations; settings: human PBMC, 18 to 24 hours, tested 30-0.014 μM, TNF by ELISA or IGEN assay; for minimal effective concentration: read-out: Lowest Effective Concentration (μM) Tumor Necrosis Factor
Source text: as §1, §2, §3, §4, §5
Tumor necrosis factor (α) (TNF) concentration is determined using ELISA kits available from Biosource International, Camarillo, Calif. Alternately, the TNF concentration can be determined by Origen® M-Series Immunoassay and read on an IGEN M-8 analyzer from IGEN International, Gaithersburg, Md. The immunoassay uses a human TNF capture and detection antibody pair from Biosource International, Camarillo, Calif. Results are expressed in pg/mL.
as §6

| SMILES | minimal effective concentration (interferon (α)) [µM] | melting point [°C] | minimal effective concentration [1] [µM] | Lowest Effective Concentration (μM) Tumor Necrosis Factor [1] |
| --- | --- | --- | --- | --- |
| CCCCc1nc2c(N)nc3ccccc3c2n1CCCCSc1ccccc1 [Example 1, 2-butyl-1-[4-(phenylthio)butyl]-1H-imidazo[4,5-c]quinolin-4-amine] | 0.12 | 118 to 120 | 0.12 | – |
| CCCCc1nc2c(N)nc3ccccc3c2n1CCCCS(=O)(=O)c1ccccc1 [Example 3, 2-butyl-1-[4-(phenylsulfonyl)butyl]-1H-imidazo[4,5-c]quinolin-4-amine] | 0.04 | 179 to 180 | 0.12 | – |
| CCCCc1nc2c(N)nc3ccccc3c2n1CCCCSC [Example 4, 2-butyl-1-[4-(methylthio)butyl]-1H-imidazo[4,5-c]quinolin-4-amine] | 0.01 | 127 to 130 | 0.01 | – |
| CCCCc1nc2c(N)nc3ccccc3c2n1CCCCS(C)(=O)=O [Example 5, 2-butyl-1-[4-(methylsulfonyl)butyl]-1H-imidazo[4,5-c]quinolin-4-amine] | 0.01 | 164 to 165 | 0.04 | – |
| Nc1nc2ccccc2c2c1ncn2CCSc1ccccc1 [Example 6, 1-[2-(phenylthio)ethyl]-1H-imidazo[4,5-c]quinolin-4-amine] | 3.33 | 233 to 235 | 10 | – |
| Nc1nc2ccccc2c2c1ncn2CCCCS(=O)(=O)c1ccccc1 [Example 7, 1-[4-(phenylsulfonyl)butyl]-1H-imidazo[4,5-c]quinolin-4-amine] | 3.33 | 175 to 177 | 10 | – |
| CS(=O)(=O)CCCCn1cnc2c(N)nc3ccccc3c21 [Example 8, 1-[4-(methylsulfonyl)butyl]-1H-imidazo[4,5-c]quinolin-4-amine] | 10 | 203 to 204 | – | * |
| Nc1nc2ccccc2c2c1ncn2CCCCSc1ccccc1 [Example 9, 1-[4-(phenylthio)butyl]-1H-imidazo[4,5-c]quinolin-4-amine] | 3.33 | 158 to 160 | 3.33 | – |
| CSCCCCn1cnc2c(N)nc3ccccc3c21 [Example 10, 1-[4-(methylthio)butyl]-1H-imidazo[4,5-c]quinolin-4-amine] | 1.11 | 163 to 164 | 1.11 | – |
| Cc1nc2c(N)nc3ccccc3c2n1CCCCCS(C)(=O)=O [Example 12, 2-methyl-1-[5-(methylsulfonyl)pentyl]-1H-imidazo[4,5-c]quinolin-4-amine] | 0.12 | 235 to 240 | 10 | – |
| CS(=O)(=O)CCCCCn1cnc2c(N)nc3ccccc3c21 [Example 14, 1-[5-(methylsulfonyl)pentyl]-1H-imidazo[4,5-c]quinolin-4-amine] | 3.33 | 199 to 201 | 10 | – |
| CCCCCCc1nc2c(N)nc3ccccc3c2n1CCCCCS(C)(=O)=O [Example 15, 2-hexyl-1-[5-(methylsulfonyl)pentyl]-1H-imidazo[4,5-c]quinolin-4-amine] | 0.04 | 168 to 171 | – | * |
| COCCc1nc2c(N)nc3ccccc3c2n1CCCCCS(C)(=O)=O [Example 16, 2-(2-methoxyethyl)-1-[5-(methylsulfonyl)pentyl]-1H-imidazo[4,5-c]quinolin-4-amine] | 0.01 | 158 to 160 | 0.04 | – |
| CCCCc1nc2c(N)nc3ccccc3c2n1CCCCCSC [Example 17, 2-butyl-1-[5-(methylthio)pentyl]-1H-imidazo[4,5-c]quinolin-4-amine] | 0.01 | 112 to 114 | 0.04 | – |
